Test results: the NIST ThermoML archive (doi:10.1021/je400917j)

Experiment: xn = mol fraction of the nth substance listed
Conditions: 101 kPa, Liquid; for mass density: Vibrating tube method

CCCCCC(C)O (stereo not given) [2-heptanol] + CC(=O)N(C)C
Conditions | mass density, 298.15 K [kg/m3] | mass density, 303.15 K [kg/m3] | mass density, 308.15 K [kg/m3] | mass density, 313.15 K [kg/m3] | viscosity, 298.15 K [mPa·s] | viscosity, 303.15 K [mPa·s] | viscosity, 308.15 K [mPa·s] | viscosity, 313.15 K [mPa·s]
x2 = 0 | 813.2 | 809.5 | 805.7 | 801.5 | 5.3 | 4.48 | 3.68 | 2.96
x2 = 0.0806 | 819 | 814.8 | 810.8 | 806.5 | 4.53 | 3.75 | 2.99 | 2.51
x2 = 0.1595 | 825 | 820.7 | 816.5 | 812.1 | 3.77 | 3.17 | 2.54 | 2.13
x2 = 0.2394 | 831.6 | 827.1 | 822.7 | 818.1 | 3.11 | 2.6 | 2.18 | 1.82
x2 = 0.3495 | 841.7 | 837.1 | 832.6 | 827.7 | 2.46 | 2.08 | 1.78 | 1.48
x2 = 0.4393 | 850.8 | 846.2 | 841.5 | 836.6 | 2.07 | 1.775 | 1.54 | 1.28
x2 = 0.559 | 864.7 | 859.9 | 855.1 | 850.2 | 1.65 | 1.436 | 1.26 | 1.06
x2 = 0.6494 | 876.4 | 871.7 | 866.8 | 861.9 | 1.41 | 1.219 | 1.08 | 0.95
x2 = 0.7393 | 889.4 | 884.7 | 879.9 | 875.1 | 1.2 | 1.09 | 0.98 | 0.87
x2 = 0.8494 | 907.5 | 902.8 | 898.1 | 893.4 | 1.06 | 0.97 | 0.88 | 0.8
x2 = 0.9393 | 924.2 | 919.7 | 915.3 | 910.8 | 0.98 | 0.906 | 0.82 | 0.76

CCCCC(C)O (stereo not given) [2-hexanol] + CC(=O)N(C)C
Conditions | mass density, 298.15 K [kg/m3] | mass density, 303.15 K [kg/m3] | mass density, 308.15 K [kg/m3] | mass density, 313.15 K [kg/m3] | viscosity, 298.15 K [mPa·s] | viscosity, 303.15 K [mPa·s] | viscosity, 308.15 K [mPa·s] | viscosity, 313.15 K [mPa·s]
x2 = 0 | 810.1 | 806.1 | 802.1 | 798 | 4.1 | 3.41 | 2.82 | 2.22
x2 = 0.0817 | 816.9 | 812.8 | 808.6 | 804.3 | 3.46 | 2.89 | 2.42 | 1.8
x2 = 0.1606 | 824 | 819.7 | 815.4 | 810.9 | 2.87 | 2.41 | 2.05 | 1.52
x2 = 0.2405 | 831.5 | 827.1 | 822.7 | 818.1 | 2.35 | 2 | 1.76 | 1.33
x2 = 0.3506 | 842.9 | 838.3 | 833.8 | 829 | 1.82 | 1.58 | 1.44 | 1.15
x2 = 0.4404 | 852.9 | 848.2 | 843.6 | 838.8 | 1.54 | 1.35 | 1.25 | 1.04
x2 = 0.5601 | 867.5 | 862.8 | 858.1 | 853.3 | 1.29 | 1.16 | 1.06 | 0.92
x2 = 0.6505 | 879.6 | 874.8 | 870.1 | 865.4 | 1.14 | 1.03 | 0.94 | 0.85
x2 = 0.7405 | 892.6 | 887.8 | 883.2 | 878.4 | 1.03 | 0.95 | 0.87 | 0.8
x2 = 0.8504 | 909.9 | 905.2 | 900.7 | 896.2 | 0.97 | 0.9 | 0.82 | 0.77
x2 = 0.9405 | 925.4 | 920.8 | 916.5 | 912.2 | 0.95 | 0.882 | 0.81 | 0.756

CC(=O)N(C)C [N,N-dimethylethanamide] + CC(C)O
Conditions | mass density, 298.15 K [kg/m3] | mass density, 303.15 K [kg/m3] | mass density, 308.15 K [kg/m3] | mass density, 313.15 K [kg/m3] | viscosity, 298.15 K [mPa·s] | viscosity, 303.15 K [mPa·s] | viscosity, 308.15 K [mPa·s] | viscosity, 313.15 K [mPa·s]
x1 = 0.081 | 796.1 | 791.8 | 787.4 | 782.8 | 1.68 | 1.53 | 1.39 | 1.22
x1 = 0.16 | 810.3 | 806 | 801.6 | 797 | 1.47 | 1.32 | 1.23 | 1.1
x1 = 0.2399 | 824.2 | 819.9 | 815.4 | 810.9 | 1.33 | 1.19 | 1.11 | 1
x1 = 0.3499 | 842.7 | 838.2 | 833.8 | 829.2 | 1.21 | 1.08 | 1.01 | 0.92
x1 = 0.4399 | 857.1 | 852.7 | 848.2 | 842.9 | 1.13 | 1.03 | 0.96 | 0.87
x1 = 0.5598 | 875.6 | 871.1 | 866.7 | 862.2 | 1.06 | 0.97 | 0.91 | 0.82
x1 = 0.6496 | 888.9 | 884.4 | 880 | 875.6 | 1.02 | 0.94 | 0.88 | 0.8
x1 = 0.7394 | 901.7 | 897.2 | 892.8 | 888.5 | 0.99 | 0.92 | 0.86 | 0.78
x1 = 0.8495 | 916.8 | 912.4 | 908 | 903.7 | 0.97 | 0.9 | 0.84 | 0.76
x1 = 0.9399 | 928.8 | 924.3 | 920 | 915.6 | 0.95 | 0.89 | 0.823 | 0.75
x1 = 1 | 936.5 | 932 | 927.8 | 923.5 | 0.94 | 0.87 | 0.82 | 0.75

CC(=O)N(C)C [N,N-dimethylethanamide] + CCC(C)O
Conditions | mass density, 298.15 K [kg/m3] | mass density, 303.15 K [kg/m3] | mass density, 308.15 K [kg/m3] | mass density, 313.15 K [kg/m3] | viscosity, 298.15 K [mPa·s] | viscosity, 303.15 K [mPa·s] | viscosity, 308.15 K [mPa·s] | viscosity, 313.15 K [mPa·s]
x1 = 0.0812 | 813.5 | 808.9 | 804.1 | 799.4 | 2.57 | 2.19 | 1.89 | 1.62
x1 = 0.1602 | 823.6 | 818.7 | 813.6 | 808.6 | 2.16 | 1.88 | 1.65 | 1.44
x1 = 0.2401 | 833.9 | 828.7 | 823.7 | 818.1 | 1.81 | 1.61 | 1.45 | 1.27
x1 = 0.3499 | 848.2 | 842.6 | 837.1 | 831.6 | 1.45 | 1.35 | 1.25 | 1.12
x1 = 0.4355 | 859.4 | 853.8 | 848 | 842.5 | 1.27 | 1.21 | 1.14 | 1.03
x1 = 0.56 | 876 | 870.3 | 864.7 | 859 | 1.14 | 1.09 | 1.02 | 0.93
x1 = 0.65 | 888.1 | 882.5 | 876.8 | 871.4 | 1.08 | 1.03 | 0.95 | 0.88
x1 = 0.7398 | 900.3 | 894.9 | 890.2 | 884.2 | 1.03 | 0.98 | 0.91 | 0.84
x1 = 0.8498 | 915.4 | 910.3 | 906.1 | 900.3 | 0.99 | 0.93 | 0.86 | 0.8
x1 = 0.9389 | 927.8 | 923.1 | 918.9 | 914 | 0.96 | 0.91 | 0.82 | 0.77
x1 = 1 | 936.5 | 932 | 927.8 | 923.5 | 0.94 | 0.87 | 0.8 | 0.75

CCCC(C)O (stereo not given) [pentan-2-ol] + CC(=O)N(C)C
Conditions | mass density, 298.15 K [kg/m3] | mass density, 303.15 K [kg/m3] | mass density, 308.15 K [kg/m3] | mass density, 313.15 K [kg/m3] | viscosity, 298.15 K [mPa·s] | viscosity, 303.15 K [mPa·s] | viscosity, 308.15 K [mPa·s] | viscosity, 313.15 K [mPa·s]
x2 = 0 | 805.4 | 800.9 | 796.9 | 792.6 | 3.5 | 2.83 | 2.35 | 1.98
x2 = 0.0811 | 813.4 | 809 | 804.9 | 800.3 | 2.87 | 2.42 | 2.08 | 1.75
x2 = 0.16 | 821.8 | 817.3 | 813 | 808.2 | 2.35 | 2.01 | 1.8 | 1.52
x2 = 0.2399 | 830.7 | 826 | 821.6 | 816.6 | 1.93 | 1.69 | 1.57 | 1.33
x2 = 0.35 | 843.5 | 838.7 | 834.1 | 828.9 | 1.52 | 1.38 | 1.29 | 1.13
x2 = 0.4398 | 854.5 | 849.6 | 845 | 839.6 | 1.3 | 1.21 | 1.14 | 1.01
x2 = 0.5595 | 870.1 | 865 | 860.4 | 854.9 | 1.13 | 1.07 | 0.99 | 0.89
x2 = 0.6499 | 882.5 | 877.5 | 872.8 | 867.4 | 1.05 | 0.99 | 0.91 | 0.83
x2 = 0.7398 | 895.4 | 890.4 | 885.8 | 880.5 | 0.99 | 0.93 | 0.86 | 0.793
x2 = 0.8499 | 912.1 | 907.3 | 902.8 | 897.8 | 0.95 | 0.89 | 0.82 | 0.761
x2 = 0.9398 | 926.5 | 921.9 | 917.5 | 913 | 0.938 | 0.878 | 0.804 | 0.752
